Read-outs that look alike come from different tables or passages of the source. Where only a bound is given, the exact number is not on record here.

The values below come from patent publication US7915270B2, “Oxazole ketones as modulators of fatty acid amide hydrolase” (The Scripps Research Institute, priority 2006, dated 2011).

Series [1] addresses T1, Rat FAAH (Rattus norvegicus, UniProt P97612).
T1 construct: expressed in transfected cells
T1 sequence (P97612 1-579): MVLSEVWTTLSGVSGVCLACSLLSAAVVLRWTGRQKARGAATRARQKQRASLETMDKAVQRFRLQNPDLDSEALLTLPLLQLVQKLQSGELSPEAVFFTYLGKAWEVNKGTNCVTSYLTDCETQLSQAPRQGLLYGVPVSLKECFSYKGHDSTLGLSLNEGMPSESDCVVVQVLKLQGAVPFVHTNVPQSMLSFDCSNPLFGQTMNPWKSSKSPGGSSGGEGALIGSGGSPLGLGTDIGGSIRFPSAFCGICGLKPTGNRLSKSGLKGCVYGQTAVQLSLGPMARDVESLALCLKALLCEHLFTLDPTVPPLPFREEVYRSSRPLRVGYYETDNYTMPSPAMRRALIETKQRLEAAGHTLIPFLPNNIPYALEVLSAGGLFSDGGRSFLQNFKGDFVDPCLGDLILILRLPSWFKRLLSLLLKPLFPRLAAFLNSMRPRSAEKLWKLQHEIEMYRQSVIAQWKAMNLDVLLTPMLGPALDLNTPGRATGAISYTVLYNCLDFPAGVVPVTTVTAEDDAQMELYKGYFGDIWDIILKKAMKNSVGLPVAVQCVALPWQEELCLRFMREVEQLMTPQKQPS
The experiment in a line: Assay Method 2: FAAH assay, 3H-anandamide hydrolysis in cell homogenate (SK-N-MC cells transfected with rat FAAH). The note with it: 3H-AEA 80 nM, rt 1 h, pH 9. It is filed as biochemical.

The nature of series [2]: Solubility determination in water. It is filed as physicochemical. The note with it: thermodynamic from solid; in water at 5, 1 and 0.1 mg/mL; pH of resulting solutions 7-8.5. As for the experimental part: Physical Chemical Properties
Solubility determinations were made by mixing the test compound in water at 5 mg/mL, 1 mg/mL, and 0.1 mg/mL concentrations. The pH of the resulting solutions was 7-8.5.

The target in series [3] is T2, FAAH (Rattus norvegicus, UniProt P97612).
T2 sequence (P97612 1-579): T1 sequence (P97612 1-579)
The experiment in a line: Assay Method 1A: FAAH enzyme assay, 14C-oleamide hydrolysis, solubilized liver plasma membrane extract.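 Further: ki obtained by Dixon analysis, taking the x-intercept of inhibitor concentration versus reciprocal rate plots at fixed substrate level and correcting for substrate concentration relative to Km.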
Description: Linear least squares fits were used for all reaction progress curves and R^2 values were consistently >0.97. […] Ki values were determined by the Dixon Method (x-intercepts of weighted linear fits of [I] versus 1/rate plots at constant substrate concentration, which were converted to Ki values using the formula Ki=−xint/[1+[S]/Km]).

The compound `O=C(O)c1cccc(-c2cnc(C(=O)CCCCCCc3ccccc3)o2)n1` [Example 37, 6-(2-(7-Phenylheptanoyl)oxazol-5-yl)picolinic acid] had an IC50 in series [1] of 11 nM. In series [2], this compound gave a solubility greater than 5000 µg/mL. In series [3] (read-out: Assay 1A Ki, liver plasma membrane extract containing FAAH, 14C-oleamide, pH 9.0, 20-23 °C, Dixon method), the inhibitory constant (Ki) was found to be 20 nM.

As to `O=C(O)c1ccc(-c2cnc(C(=O)CCCCCCc3ccccc3)o2)nc1` [Example 38, 6-(2-(7-Phenylheptanoyl)oxazol-5-yl)nicotinic acid], it took 2 nM to reach half-maximal inhibition in series [1] (IC50). In series [2], this compound registered a solubility greater than 5000 µg/mL. Further, in series [3], the affinity, expressed as Ki, was 7 nM.

As usually defined, the IC50 is the concentration that gives 50% inhibition. The term solubility denotes the dissolved amount per volume that the medium holds. A higher solubility goes with a readily soluble substance. As a reminder, the Ki is a dissociation constant, usually derived from enzyme kinetics or from competition with a known ligand.
